For assay [1], the target named is T1, cAMP-dependent protein kinase catalytic subunit PRKX (Homo sapiens, UniProt P51817).
T1 sequence (P51817 whole entry): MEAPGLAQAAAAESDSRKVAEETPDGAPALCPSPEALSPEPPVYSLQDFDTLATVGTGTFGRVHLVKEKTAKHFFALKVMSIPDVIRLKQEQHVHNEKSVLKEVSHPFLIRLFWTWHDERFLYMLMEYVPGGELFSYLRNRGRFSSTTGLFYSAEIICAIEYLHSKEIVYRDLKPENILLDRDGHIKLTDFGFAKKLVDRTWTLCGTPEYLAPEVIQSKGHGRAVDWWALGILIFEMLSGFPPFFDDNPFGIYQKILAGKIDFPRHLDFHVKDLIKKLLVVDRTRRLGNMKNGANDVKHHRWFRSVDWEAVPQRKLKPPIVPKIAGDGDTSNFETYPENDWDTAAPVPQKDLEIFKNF

For assay [2], the target named is Tyrosine-protein kinase ABL1 (Homo sapiens, UniProt P00519, T315I).
In a further assay the target is Activated CDC42 kinase 1 (Homo sapiens, UniProt Q07912).
Assay [3] addresses Death-associated protein kinase 3 (Homo sapiens, UniProt O43293).
Assay [4] concerns the target Casein kinase II subunit alpha (Homo sapiens, UniProt P68400).
The target in assay [5] is Dual specificity tyrosine-phosphorylation-regulated kinase 1B (Homo sapiens, UniProt Q9Y463).
Sequence of Dual specificity tyrosine-phosphorylation-regulated kinase 1B (Q9Y463 whole entry): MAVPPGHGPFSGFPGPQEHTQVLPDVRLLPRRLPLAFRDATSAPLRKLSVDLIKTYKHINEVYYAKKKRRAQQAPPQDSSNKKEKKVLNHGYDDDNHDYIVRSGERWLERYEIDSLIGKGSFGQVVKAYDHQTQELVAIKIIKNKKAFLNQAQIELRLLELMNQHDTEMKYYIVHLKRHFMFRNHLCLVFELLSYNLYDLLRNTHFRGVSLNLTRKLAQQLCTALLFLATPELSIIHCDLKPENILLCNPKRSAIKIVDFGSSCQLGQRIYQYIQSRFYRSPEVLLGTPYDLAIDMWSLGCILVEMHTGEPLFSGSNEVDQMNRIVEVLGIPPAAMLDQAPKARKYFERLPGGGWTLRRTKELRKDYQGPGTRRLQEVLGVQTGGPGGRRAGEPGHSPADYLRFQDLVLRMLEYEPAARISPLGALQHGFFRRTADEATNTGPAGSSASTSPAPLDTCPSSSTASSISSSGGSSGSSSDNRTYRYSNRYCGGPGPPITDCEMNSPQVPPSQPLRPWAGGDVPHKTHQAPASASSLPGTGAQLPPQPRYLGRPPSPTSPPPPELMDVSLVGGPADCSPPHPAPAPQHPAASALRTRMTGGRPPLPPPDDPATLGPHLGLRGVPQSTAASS
Assay [6] concerns the target Protein kinase C eta type (Homo sapiens, UniProt P24723).
The target of assay [7] is Ribosomal protein S6 kinase alpha-2 (Homo sapiens, UniProt Q15349).
The target of assay [8] is Leukocyte tyrosine kinase receptor (Homo sapiens, UniProt P29376).
Assay [9] concerns the target T2, Bone morphogenetic protein receptor type-2 (Homo sapiens, UniProt Q13873).
T2 sequence (Q13873 whole entry): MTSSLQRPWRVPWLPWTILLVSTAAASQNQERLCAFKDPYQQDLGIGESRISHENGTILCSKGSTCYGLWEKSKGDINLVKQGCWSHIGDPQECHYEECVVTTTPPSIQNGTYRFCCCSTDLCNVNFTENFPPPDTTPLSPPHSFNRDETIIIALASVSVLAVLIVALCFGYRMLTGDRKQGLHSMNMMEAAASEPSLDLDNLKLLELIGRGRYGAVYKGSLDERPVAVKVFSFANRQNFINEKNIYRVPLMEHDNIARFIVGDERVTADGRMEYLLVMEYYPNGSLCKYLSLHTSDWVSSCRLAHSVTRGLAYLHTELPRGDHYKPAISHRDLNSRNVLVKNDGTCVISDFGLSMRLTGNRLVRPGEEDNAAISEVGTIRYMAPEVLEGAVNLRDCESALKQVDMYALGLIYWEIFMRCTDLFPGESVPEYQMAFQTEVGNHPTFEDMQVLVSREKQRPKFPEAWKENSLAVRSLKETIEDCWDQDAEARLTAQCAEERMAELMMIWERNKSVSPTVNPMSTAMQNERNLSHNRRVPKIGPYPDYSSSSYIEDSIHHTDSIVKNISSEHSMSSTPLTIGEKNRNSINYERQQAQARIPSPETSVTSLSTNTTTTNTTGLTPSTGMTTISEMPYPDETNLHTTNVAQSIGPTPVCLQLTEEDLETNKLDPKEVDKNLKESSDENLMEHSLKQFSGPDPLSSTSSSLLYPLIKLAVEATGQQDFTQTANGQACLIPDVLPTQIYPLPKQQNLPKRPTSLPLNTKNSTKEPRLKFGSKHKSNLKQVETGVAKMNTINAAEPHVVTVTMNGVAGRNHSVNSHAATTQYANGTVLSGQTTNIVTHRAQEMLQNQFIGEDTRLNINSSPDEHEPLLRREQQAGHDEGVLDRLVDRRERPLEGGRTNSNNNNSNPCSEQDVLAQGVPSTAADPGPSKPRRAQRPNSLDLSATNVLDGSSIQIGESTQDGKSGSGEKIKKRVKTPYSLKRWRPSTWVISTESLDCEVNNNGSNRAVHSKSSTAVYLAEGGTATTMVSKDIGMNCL

Assay [10] concerns the target High affinity nerve growth factor receptor (Homo sapiens, UniProt P04629).
Assay [11] deals with Calcium/calmodulin-dependent protein kinase kinase 1 (Homo sapiens, UniProt Q8N5S9).
Sequence of Calcium/calmodulin-dependent protein kinase kinase 1 (Q8N5S9 whole entry): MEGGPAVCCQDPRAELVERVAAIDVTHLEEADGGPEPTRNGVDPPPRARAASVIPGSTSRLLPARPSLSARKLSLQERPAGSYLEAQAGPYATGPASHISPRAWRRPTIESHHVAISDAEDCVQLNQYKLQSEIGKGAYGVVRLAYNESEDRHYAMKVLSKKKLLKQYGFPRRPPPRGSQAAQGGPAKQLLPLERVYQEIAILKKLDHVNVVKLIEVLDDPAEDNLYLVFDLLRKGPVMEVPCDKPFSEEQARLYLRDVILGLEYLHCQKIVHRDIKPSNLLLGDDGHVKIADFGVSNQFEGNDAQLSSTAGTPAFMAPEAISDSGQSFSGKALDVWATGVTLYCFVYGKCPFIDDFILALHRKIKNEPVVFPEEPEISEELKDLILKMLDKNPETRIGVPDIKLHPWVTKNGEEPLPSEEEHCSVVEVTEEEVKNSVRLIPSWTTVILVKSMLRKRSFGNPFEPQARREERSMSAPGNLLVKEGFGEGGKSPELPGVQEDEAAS
For assay [12], the target named is Tyrosine-protein kinase Srms (Homo sapiens, UniProt Q9H3Y6).
Sequence of Tyrosine-protein kinase Srms (Q9H3Y6 whole entry): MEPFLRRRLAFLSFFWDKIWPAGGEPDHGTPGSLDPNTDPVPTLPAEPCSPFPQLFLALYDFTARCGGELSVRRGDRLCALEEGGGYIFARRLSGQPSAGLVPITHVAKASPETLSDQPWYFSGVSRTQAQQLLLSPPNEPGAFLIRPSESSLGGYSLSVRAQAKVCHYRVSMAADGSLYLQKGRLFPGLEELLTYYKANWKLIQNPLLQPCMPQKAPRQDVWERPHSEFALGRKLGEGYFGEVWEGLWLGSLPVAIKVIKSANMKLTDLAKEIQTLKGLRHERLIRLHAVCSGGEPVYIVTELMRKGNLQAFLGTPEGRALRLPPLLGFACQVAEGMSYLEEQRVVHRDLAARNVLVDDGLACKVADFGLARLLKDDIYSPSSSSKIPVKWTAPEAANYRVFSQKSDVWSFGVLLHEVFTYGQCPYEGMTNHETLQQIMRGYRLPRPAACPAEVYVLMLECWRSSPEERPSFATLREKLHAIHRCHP
In assay [13] the target is BDNF/NT-3 growth factors receptor (Homo sapiens, UniProt Q16620).
Sequence of BDNF/NT-3 growth factors receptor (Q16620 whole entry): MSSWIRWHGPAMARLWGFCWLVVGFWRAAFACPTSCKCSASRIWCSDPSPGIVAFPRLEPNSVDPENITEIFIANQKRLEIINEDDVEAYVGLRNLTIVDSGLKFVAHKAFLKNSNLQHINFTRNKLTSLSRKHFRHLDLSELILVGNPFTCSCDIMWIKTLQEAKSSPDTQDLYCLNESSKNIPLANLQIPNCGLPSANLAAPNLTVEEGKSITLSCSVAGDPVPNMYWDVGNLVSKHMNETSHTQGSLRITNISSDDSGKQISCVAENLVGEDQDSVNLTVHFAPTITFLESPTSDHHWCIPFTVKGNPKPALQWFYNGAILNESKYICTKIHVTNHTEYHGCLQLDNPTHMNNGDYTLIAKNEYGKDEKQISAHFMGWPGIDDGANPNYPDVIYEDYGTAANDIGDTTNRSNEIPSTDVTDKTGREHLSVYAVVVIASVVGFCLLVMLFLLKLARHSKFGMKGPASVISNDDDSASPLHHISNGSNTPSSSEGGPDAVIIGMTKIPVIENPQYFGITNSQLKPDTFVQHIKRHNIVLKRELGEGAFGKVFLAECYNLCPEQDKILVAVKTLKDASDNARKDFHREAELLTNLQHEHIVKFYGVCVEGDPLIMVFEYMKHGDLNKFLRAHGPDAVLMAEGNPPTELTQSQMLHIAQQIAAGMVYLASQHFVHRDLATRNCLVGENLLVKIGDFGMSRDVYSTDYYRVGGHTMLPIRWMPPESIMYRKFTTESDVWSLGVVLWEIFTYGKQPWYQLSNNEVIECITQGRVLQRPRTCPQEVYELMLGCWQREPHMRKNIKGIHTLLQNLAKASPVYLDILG
Assay [14] deals with Tyrosine-protein kinase HCK (Homo sapiens, UniProt P08631).
Assay [15] concerns the target Calcium/calmodulin-dependent protein kinase kinase 2 (Homo sapiens, UniProt Q96RR4).
The target in assay [16] is Tyrosine-protein kinase JAK2 (Homo sapiens, UniProt O60674).
The target in assay [17] is Phosphatidylinositol 4,5-bisphosphate 3-kinase catalytic subunit alpha isoform (Homo sapiens, UniProt P42336).

Sequence of Death-associated protein kinase 3 (O43293 whole entry): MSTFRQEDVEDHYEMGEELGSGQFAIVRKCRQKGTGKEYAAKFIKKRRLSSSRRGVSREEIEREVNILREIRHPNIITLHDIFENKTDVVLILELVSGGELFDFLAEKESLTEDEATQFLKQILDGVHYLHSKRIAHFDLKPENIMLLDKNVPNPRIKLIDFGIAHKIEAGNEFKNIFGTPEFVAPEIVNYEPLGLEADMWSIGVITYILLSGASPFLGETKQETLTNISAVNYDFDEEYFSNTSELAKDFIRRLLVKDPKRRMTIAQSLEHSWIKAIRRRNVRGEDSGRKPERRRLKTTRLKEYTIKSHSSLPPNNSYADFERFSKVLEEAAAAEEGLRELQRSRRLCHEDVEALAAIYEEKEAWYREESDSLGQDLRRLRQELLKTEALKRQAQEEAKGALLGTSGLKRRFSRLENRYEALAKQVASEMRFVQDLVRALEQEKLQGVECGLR
Sequence of Protein kinase C eta type (P24723 whole entry): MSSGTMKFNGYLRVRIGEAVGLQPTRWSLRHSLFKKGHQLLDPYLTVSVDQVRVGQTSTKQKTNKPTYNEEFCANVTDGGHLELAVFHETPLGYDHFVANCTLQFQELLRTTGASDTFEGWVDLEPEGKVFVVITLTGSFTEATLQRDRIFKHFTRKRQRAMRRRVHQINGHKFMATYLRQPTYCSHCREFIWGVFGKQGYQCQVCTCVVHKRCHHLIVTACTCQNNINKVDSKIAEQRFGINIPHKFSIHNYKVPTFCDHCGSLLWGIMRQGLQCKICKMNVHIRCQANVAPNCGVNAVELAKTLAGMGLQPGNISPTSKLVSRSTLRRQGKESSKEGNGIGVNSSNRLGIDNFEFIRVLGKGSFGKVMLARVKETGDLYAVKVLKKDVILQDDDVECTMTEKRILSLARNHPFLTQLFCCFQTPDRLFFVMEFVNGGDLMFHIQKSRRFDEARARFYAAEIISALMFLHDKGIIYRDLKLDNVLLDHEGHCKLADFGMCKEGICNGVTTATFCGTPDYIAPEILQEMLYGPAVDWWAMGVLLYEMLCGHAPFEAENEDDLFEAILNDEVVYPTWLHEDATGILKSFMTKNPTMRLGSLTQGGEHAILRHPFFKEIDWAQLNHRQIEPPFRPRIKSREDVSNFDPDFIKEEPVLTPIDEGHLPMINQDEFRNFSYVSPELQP
Sequence of Calcium/calmodulin-dependent protein kinase kinase 2 (Q96RR4 whole entry): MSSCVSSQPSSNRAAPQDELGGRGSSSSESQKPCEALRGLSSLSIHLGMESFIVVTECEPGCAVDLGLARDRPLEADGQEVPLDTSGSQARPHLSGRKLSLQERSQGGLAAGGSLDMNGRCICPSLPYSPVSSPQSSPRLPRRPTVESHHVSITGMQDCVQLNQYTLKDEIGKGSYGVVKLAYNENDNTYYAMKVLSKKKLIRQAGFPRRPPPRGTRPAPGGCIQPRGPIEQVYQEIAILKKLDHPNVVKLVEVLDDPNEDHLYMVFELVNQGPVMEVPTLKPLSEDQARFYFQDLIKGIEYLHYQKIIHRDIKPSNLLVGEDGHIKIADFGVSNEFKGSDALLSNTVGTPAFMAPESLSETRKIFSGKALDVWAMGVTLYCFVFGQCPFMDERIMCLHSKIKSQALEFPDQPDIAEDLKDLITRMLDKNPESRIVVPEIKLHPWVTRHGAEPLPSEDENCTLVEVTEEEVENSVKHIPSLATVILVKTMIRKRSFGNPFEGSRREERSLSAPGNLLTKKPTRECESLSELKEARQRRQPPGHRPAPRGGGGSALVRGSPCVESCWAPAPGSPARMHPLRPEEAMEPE
Sequence of Casein kinase II subunit alpha (P68400 whole entry): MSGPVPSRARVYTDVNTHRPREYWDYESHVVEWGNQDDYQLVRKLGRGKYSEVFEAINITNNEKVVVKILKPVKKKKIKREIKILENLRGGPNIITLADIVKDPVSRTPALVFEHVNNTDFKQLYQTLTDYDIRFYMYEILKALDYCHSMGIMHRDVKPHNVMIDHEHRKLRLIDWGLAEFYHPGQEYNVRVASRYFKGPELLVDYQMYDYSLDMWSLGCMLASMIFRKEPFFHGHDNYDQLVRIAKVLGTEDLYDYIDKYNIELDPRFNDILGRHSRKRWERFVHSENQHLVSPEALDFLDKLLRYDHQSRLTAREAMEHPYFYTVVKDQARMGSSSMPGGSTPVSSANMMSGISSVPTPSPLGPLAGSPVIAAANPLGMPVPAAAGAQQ

`CCN1CCN(Cc2ccc(NC(=O)Nc3ccc(Oc4cc(NC)ncn4)cc3)cc2C(F)(F)F)CC1` [AST-487] showed a Kd in [1] of over 10 µM.

`COCC(=O)NC/C=C/c1ccc2ncnc(Nc3ccc(Oc4ccc(C)nc4)c(C)c3)c2c1` [CP-724714]: the Kd (in [2]; at Activated CDC42 kinase 1; in [3]; in assay [4]; in assay [5]; in assay [6]) was over 10 µM each time. Moreover, the Kd in assay [7], in assay [8], in [9], in assay [1], in assay [10] and in assay [11] was over 10 µM throughout. Moreover, the Kd in assay [12], in assay [13], in assay [14], in [15] and in assay [16] was over 10 µM each time.

For `Nc1nc(Nc2ccc(S(N)(=O)=O)cc2)nn1C(=O)c1c(F)cccc1F` [JNJ-7706621], the dissociation constant (Kd) in assay [3] was over 10 µM; in assay [4], over 10 µM; in assay [5] it was over 10 µM; in assay [17], over 10 µM; in assay [6], over 10 µM; in assay [7], 0.41 µM. Also, the Kd in assay [8], in assay [12] and in [13] was over 10 µM each time.

`CCOc1cc2ncc(C#N)c(Nc3ccc(F)c(Cl)c3)c2cc1NC(=O)/C=C/CN(C)C` [PELITINIB]: the Kd was 5.2 µM at Activated CDC42 kinase 1; over 10 µM in [4]; over 10 µM in [17]; over 10 µM in assay [6]; over 10 µM in assay [7]; over 10 µM in assay [8]. The Kd in assay [9] was over 10 µM; in assay [1], over 10 µM; in assay [10] it was over 10 µM; in [11], 5.1 µM; in assay [12], over 10 µM; in assay [13] it was over 10 µM. In assay [16], this compound gave a Kd of over 10 µM.

`Oc1ccc(-c2nc(-c3ccncc3)c(-c3ccc(F)cc3)[nH]2)cc1` [SB-202190]: the equilibrium dissociation constant (Kd) (in [2]; at Activated CDC42 kinase 1; in assay [3]; in assay [4]; in assay [5]; in [17]) was over 10 µM each time. The Kd in assay [6], in [7], in assay [8], in assay [9], in assay [1] and in assay [10] was over 10 µM in each case. The Kd in assay [11], in assay [12], in [13], in [14], in assay [15] and in assay [16] was over 10 µM in each case.

For the compound `NC(=O)c1ccc(-c2nc(-c3ccc4c(c3)OCO4)c(-c3ccccn3)[nH]2)cc1` [SB-431542], the Kd (in assay [2]; on Activated CDC42 kinase 1; in assay [3]; in [4]; in assay [5]; in assay [17]) was over 10 µM in each case. For the same compound, the Kd in [6], in assay [7], in assay [8], in [9], in assay [1] and in [10] was over 10 µM throughout. The Kd in assay [11], in [12], in assay [13], in [14], in assay [15] and in [16] was over 10 µM throughout.

The Kd is a measure of binding affinity in units of concentration.
